# Laboratory results published in patent US4198506A, “2-Carboxyalkyl-2,3-dihydro-6-mercapto-s-triazolo[4,3-b]-pyridazin-3-ones” (Bristol-Myers Company, priority 1979, dated 1980).
# Read-outs that look alike come from different tables or passages of the source.
# What was measured:
# [1] = tested on: S. aureus (sensitive); experiment: In vitro activity (geometric mean MIC, serial dilution); assay type: cell-based; conditions: Staphylococcus aureus, read-out: Geometric Mean MIC
# [2] = tested on: Providencia sp.; experiment: as above; assay type: cell-based; conditions: 5 strains, Mueller-Hinton agar, inoculum 10^4 dilution, MIC cutoff 200 mcg./ml., read-out: Geometric Mean MIC
# [3] = tested on: Proteus (indole-); experiment: as above; assay type: cell-based; conditions: read-out: Geometric Mean MIC
# [4] = tested on: Enterobacter (sensitive); experiment: as above; assay type: cell-based; conditions: 3 strains, Mueller-Hinton agar, inoculum 10^4 dilution, MIC cutoff 200 mcg./ml., read-out: Geometric Mean MIC
# [5] = tested on: Klebsiella sp.; experiment: as above; assay type: cell-based; conditions: 12 strains, Mueller-Hinton agar, inoculum 10^4 dilution, MIC cutoff 200 mcg./ml., read-out: Geometric Mean MIC
# [6] = tested on: Proteus (indole +); experiment: as above; assay type: cell-based; conditions: read-out: Geometric Mean MIC
# [7] = tested on: S. pyogenes; experiment: as above; assay type: cell-based; conditions: Streptococcus pyogenes; 10 strains; Mueller-Hinton agar, inoculum 10^4 dilution; MIC cutoff 200 mcg./ml.
# [8] = tested on: E. coli (Penicillinase +); experiment: as above; assay type: cell-based; conditions: Escherichia coli; 7 strains; Mueller-Hinton agar, inoculum 10^4 dilution; MIC cutoff 200 mcg./ml.; read-out: Geometric Mean MIC
# [9] = tested on: S. aureus (Methicillin-R); experiment: as above; assay type: cell-based; conditions: Staphylococcus aureus; 15 strains; Mueller-Hinton agar, inoculum 10^4 dilution; MIC cutoff 200 mcg./ml.
# [10] = tested on: Miscellaneous (Salmonella, Shigella, Citrobacter); experiment: microbe, parasite or virus in culture; conditions: read-out: Geometric Mean MIC
# [11] = tested on: D. pneumoniae; experiment: In vitro activity (geometric mean MIC, serial dilution); assay type: cell-based; conditions: Streptococcus pneumoniae; 9 strains; Mueller-Hinton agar, inoculum 10^4 dilution; MIC cutoff 200 mcg./ml.
# [12] = tested on: S. marcescens; experiment: as above; assay type: cell-based; conditions: Serratia marcescens; 16 strains; Mueller-Hinton agar, inoculum 10^4 dilution; MIC cutoff 200 mcg./ml.; read-out: Geometric Mean MIC
# [13] = tested on: S. aureus penicillinase+); experiment: as above; assay type: cell-based; conditions: Staphylococcus aureus; 13 strains; Mueller-Hinton agar, inoculum 10^4 dilution; MIC cutoff 200 mcg./ml.; read-out: Geometric Mean MIC
# [14] = tested on: S. aureus Smith; experiment: In vivo activity (Mice, sc); conditions: Staphylococcus aureus, several determinations listed, read-out: PD50
# From the text: (§1) |In vivo Activity of BB-[…] and Related Compounds (Mice, sc) | (PD50 (mgm./kg.)
# [15] = tested on: E. coli Juhl; experiment: In vivo activity (Mice, sc); conditions: Escherichia coli, several determinations listed, read-out: PD50
# From the text: as §1
# [16] = tested on: E. coli (sensitive); experiment: In vitro activity (geometric mean MIC, serial dilution); assay type: cell-based; conditions: Escherichia coli, read-out: Geometric Mean MIC
# [17] = tested on: Enterobacter (Cephalosporinase +); experiment: as above; assay type: cell-based; conditions: 7 strains, Mueller-Hinton agar, inoculum 10^4 dilution, MIC cutoff 200 mcg./ml.
# [18] = tested on: Proteus (indole +, cephalosporinase +); experiment: as above; assay type: cell-based; conditions: 5 strains; Mueller-Hinton agar, inoculum 10^4 dilution; MIC cutoff 200 mcg./ml.; read-out: Geometric Mean MIC
# [19] = tested on: Pr. vulgaris; experiment: In vitro antibacterial activity (Steers' agar dilution MIC); assay type: cell-based; conditions: Proteus vulgaris, table 2 (BB-S493), read-out: MIC
# [20] = tested on: Ps. aeruginosa; experiment: as above; assay type: cell-based; conditions: table 2 (BB-S493)
# [21] = tested on: Sal. enteritidis; experiment: as above; assay type: cell-based; conditions: Salmonella enterica, table 2 (BB-S493), Sal. enteritidis A9531
# [22] = tested on: S. aureus; experiment: as above; assay type: cell-based; conditions: Staphylococcus aureus, table 2 (BB-S493)
# From the text: (§2) In vitro Antibacterial Activity of BB-S493 Compared with
# (§3) BB-S479 and Cefamandole (Determined by Steers' Agar Dilu-
# (§4) tion Method on Mueller-Hinton Agar Plate)
# (§5) In vitro antibacterial activity of BB-S 525 compared with
# (§6) BB-S 479 and cefamandole (determined by Steers' agar dilution
# (§7) method on Mueller-Hinton agar plate)
# [23] = tested on: Sal. typhosa; experiment: as above; assay type: cell-based; conditions: table 2 (BB-S493); Sal. typhosa A9498
# From the text: as §2, §3, §4, §5, §6, §7
# [24] = tested on: Shig. sonnei; experiment: as above; assay type: cell-based; conditions: Shigella sonnei, table 2 (BB-S493); Shig. sonnei A9516
# From the text: as §2, §3, §4, §5, §6, §7
# [25] = tested on: Kl. pneumoniae; experiment: as above; assay type: cell-based; conditions: Klebsiella pneumoniae, table 2 (BB-S493)
# From the text: as §2, §3, §4, §5, §6, §7
# [26] = tested on: Shig. flexneri; experiment: as above; assay type: cell-based; conditions: Shigella flexneri; table 2 (BB-S493); Shig. flexneri A9684; read-out: MIC
# From the text: as §2, §3, §4, §5, §6, §7
# [27] = tested on: E. coli; experiment: as above; assay type: cell-based; conditions: Escherichia coli, read-out: MIC
# From the text: as §2, §3, §4, §5, §6, §7
# [28] = tested on: Pr. mirabilis; experiment: as above; assay type: cell-based; conditions: Proteus mirabilis, table 2 (BB-S493), read-out: MIC
# [29] = tested on: B. anthracis; experiment: microbe, parasite or virus in culture; assay type: cell-based; conditions: Bacillus anthracis, table 2 (BB-S493); B. anthracis A9504
# [30] = tested on: Pr. rettgeri; experiment: In vitro antibacterial activity (Steers' agar dilution MIC); assay type: cell-based; conditions: Providencia rettgeri, table 2 (BB-S493); Pr. rettgeri A15167
# [31] = tested on: Shig. dysenteriae; experiment: as above; assay type: cell-based; conditions: Shigella dysenteriae, table 2 (BB-S493); Shig dysenteriae
# [32] = tested on: Enterob. cloacae; experiment: as above; assay type: cell-based; conditions: table 2 (BB-S493); Enterob. cloacae A9656; read-out: MIC
# [33] = tested on: St. faecalis; experiment: as above; assay type: cell-based; conditions: Enterococcus faecalis, table 2 (BB-S493); St. faecalis A9536; read-out: MIC
# [34] = tested on: Pr. morganii; experiment: as above; assay type: cell-based; conditions: Morganella morganii, table 2 (BB-S493), read-out: MIC
# [35] = tested on: Serr. marcescens; experiment: as above; assay type: cell-based; conditions: Serratia marcescens; table 2 (BB-S493); Serr. marcescens A20019; read-out: MIC
compound,measurement,setting,value
"NCc1ccsc1CC(=O)N[C@@H]1C(=O)N2C(C(=O)O)=C(CSc3ccc4nn(CC(=O)O)c(=O)n4n3)CS[C@H]12 [BB-S483, 7-(3-Aminomethyl-2-thienylacetamido)-3-(2-carboxymethyl-2,3-dihydro-s-triazolo[4,3-b]pyridazin-3-on-6-ylthiomethyl)-3-cephem-4-carboxylic Acid]",MIC,[1],0.3 µg/mL
same,MIC,[2],2.1 µg/mL
same,MIC,[3],0.7 µg/mL
same,MIC,[4],1.3 µg/mL
same,MIC,[5],1.1 µg/mL
same,MIC,[6],0.4 µg/mL
same,MIC,[7],0.08 µg/mL
same,MIC,[8],21 µg/mL
same,MIC,[9],48 µg/mL
same,MIC,[10],0.9 µg/mL
same,MIC,[11],0.04 µg/mL
same,MIC,[12],81 µg/mL
same,MIC,[13],1.1 µg/mL
same,ED50,[14],0.34 mg/kg
same,ED50,[15],0.15 mg/kg
same,MIC,[16],0.3 µg/mL
same,MIC,[17],5.2 µg/mL
same,MIC,[18],17 µg/mL
"NCC1=C(CC(=O)N[C@@H]2C(=O)N3C(C(=O)O)=C(CSc4ccc5nn(CC(=O)O)c(=O)n5n4)CS[C@H]23)CC=CC1 [BB-S493, 7-[(2-Aminomethyl-1,4-cyclohexadienyl)acetamido]3-(2-N-carboxymethyl-s-triazolo[4,5-b]pyridazin-3-on-6-ylthiomethyl)-3-cephem-4-carboxylic Acid]",MIC,[19]; Pr. vulgaris A9436,0.4 µg/mL
same,MIC,[19]; Pr. vulgaris A9699,6.3 µg/mL
same,MIC,"[20]; Pseudomonas aeruginosa, Ps. aeruginosa A9843, read-out: MIC",> 100 µg/mL
same,MIC,[20]; Ps. aerugionsa A9930,> 100 µg/mL
same,MIC,[21],0.1 µg/mL
same,MIC,[22]; S. aureus A9497,0.2 µg/mL
same,MIC,[22]; S. aureus BX-1633 A9606,0.4 µg/mL
same,MIC,[22]; S. aureus Smith A9537,0.4 µg/mL
same,MIC,[23],0.1 µg/mL
same,MIC,[24],0.05 µg/mL
same,MIC,[25]; Kl. pneumoniae A9678,0.4 µg/mL
same,MIC,[25]; Kl. pneumoniae A9867,0.2 µg/mL
same,MIC,[25]; Kl. pneumoniae A9977,0.2 µg/mL
same,MIC,[25]; Kl. pneumoniae A15130,0.2 µg/mL
same,MIC,[26],25 µg/mL
same,MIC,"[27]; ATCC8739, table 2 (BB-S493), E. coli ATCC 8739",0.2 µg/mL
same,MIC,"[27]; table 2 (BB-S493), E. coli A9660",0.1 µg/mL
same,MIC,"[27]; table 2 (BB-S493), E. coli A15147",6.3 µg/mL
same,MIC,"[27]; table 2 (BB-S493), E. coli A15810",0.2 µg/mL
same,MIC,"[27]; table 2 (BB-S493), E. coli BX-1373",0.4 µg/mL
same,MIC,"[27]; table 2 (BB-S493), E. coli Juhl A15119",0.2 µg/mL
same,MIC,"[27]; table 2 (BB-S493), E. coli NIHJ",0.1 µg/mL
same,MIC,[28]; Pr. mirabilis A9554,0.2 µg/mL
same,MIC,[28]; Pr. mirabilis A9900,0.2 µg/mL
same,MIC,[29],0.0125 µg/mL
same,ED50,[14],0.29 mg/kg
same,ED50,[15],0.27 mg/kg
same,MIC,[30],0.1 µg/mL
same,MIC,[31],0.05 µg/mL
same,MIC,[32],6.3 µg/mL
same,MIC,[33],100 µg/mL
same,MIC,[34]; Pr. morganii A9553,> 100 µg/mL
same,MIC,[34]; Pr. morganii A20031,0.4 µg/mL
same,MIC,[35],100 µg/mL
